From the NIST ThermoML archive (doi:10.1021/je025629r)
Numbers after ± are expanded uncertainties.

Details: 298.2 K; 101.33 kPa; Liquid; vibrating tube
`CCCCCCCC[n+]1ccn(C)c1.[Cl-]` [1-methyl-3-octylimidazolium chloride] gave a mass density of 1010.4 ± 1 kg/m3. `CCCCCCCCCCCC` [dodecane] gave a mass density of 746.6 ± 0.4 kg/m3. Work on `CCO` [ethanol] yielded a mass density of 784.93 ± 0.42 kg/m3. For `CCCCCCC` [heptane], the mass density was 682.3 ± 0.4 kg/m3. Molecule `CCCCCCCCCCCCCCCC` [hexadecane] has a mass density of 770.3 ± 0.4 kg/m3. `CO` [methanol] gave a mass density of 786.27 ± 0.42 kg/m3.
